Experimental data: patent US20250346602A1, “LACTAM SUBSTITUTED IMIDAZOPYRIDAZINE IL-17A MODULATORS AND USES THEREOF” (DICE ALPHA, INC., priority 2022, published 2025)

Biological target: T1, IL-17A/A (Homo sapiens, UniProt Q16552)
T1 construct: purchased Genscript Z03228
T1 sequence (Q16552 24-155): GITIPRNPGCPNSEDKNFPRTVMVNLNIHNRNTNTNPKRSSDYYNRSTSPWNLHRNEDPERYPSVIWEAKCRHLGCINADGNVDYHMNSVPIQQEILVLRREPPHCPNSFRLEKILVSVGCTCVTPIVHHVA
Assay: IL-17A/A HEK-Blue cell assay
Type: cell-based
Details: HEK-Blue IL-17A reporter cell line (HEK 293), IL-17A/A stimulation, 20 hours incubation, SEAP read at A630
Summary of the method: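 IC50 came from a 4-parameter fit of SEAP read at A630 (Quanti-Blue). Compound was titrated to a top final concentration of 10, 1 or 0.3 uM with 0.1% final DMSO and added just before IL-17A/A. Incubation lasted 20 hours in HEK293 cells engineered with IL-17RA, IL-17RC, Act1 and an NFκB-SEAP reporter.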

| IC50 | SMILES |
| --- | --- |
| > 1000 nM | O=C1NC[C@H](C(F)(F)F)CC1Cc1ccc2nc([C@@H](NC(=O)C3(F)CC3)C3CCC(F)(F)CC3)cn2n1 (stereo partly drawn) [Compound 139, N-((1S)-(4,4-difluorocyclohexyl)(6-(((5R)-2-oxo-5-(trifluoromethyl)piperidin-3-yl)methyl)imidazo[1,2-b]pyridazin-2-yl)methyl)-1-fluorocyclopropane-1-carboxamide] |
| < 100 nM | O=C(N[C@H](c1cn2ncc(CC3C[C@@H](C(F)(F)F)NC3=O)cc2n1)C1CCC(F)(F)CC1)c1conc1C(F)(F)F (single isomer, unassigned) [Compound 215] |
| < 100 nM | CC(C)n1nccc1C(=O)N[C@H](c1cn2nc(CC3C[C@@H](C(F)(F)F)CNC3=O)ccc2n1)[C@@H]1CCCC(F)(F)C1 (stereo partly drawn) [Compound 149, N-((1S)—((R)-3,3-difluorocyclohexyl)(6-(((5R)-2-oxo-5-(trifluoromethyl)piperidin-3-yl)methyl)imidazo[1,2-b]pyridazin-2-yl)methyl)-1-isopropyl-1H-pyrazole-5-carboxamide] |
| 100 to 1000 nM | CCn1nccc1C(=O)N[C@H](c1cn2nc(CC3C[C@H](C(F)(F)F)CNC3=O)ccc2n1)C1CCC(F)(F)CC1 (stereo partly drawn) [Compound 152, N-((1S)-(4,4-difluorocyclohexyl)(6-(((5S)-2-oxo-5-(trifluoromethyl)piperidin-3-yl)methyl)imidazo[1,2-b]pyridazin-2-yl)methyl)-1-ethyl-1H-pyrazole-5-carboxamide] |
| > 1000 nM | CCn1nccc1C(=O)N[C@H](c1cn2nc(CC3C[C@@H](C(F)(F)F)NC3=O)ccc2n1)C1CCCCCC1 (single isomer, unassigned) [Compound 6] |
